Experimental data as given in US20260130925A1, “METHODS FOR TREATING CANCER” (Genesis Molecular AI, Inc., priority 2022, published 2026).

Assays:
[1] = target: T1, PI3Kα H1047R in T47D cells (Homo sapiens, UniProt P42336, H1047R); assay: PI3Kα cellular assay: T47D pAKT S473 HTRF; format: cell-based; settings: for T47D pAKT S473 HTRF IC50 (H1047R): T47D (H1047R) selectivity over SKBR3 (WT): T47D (H1047R) versus SKBR3 (WT) cells; for IC50: T47D cells (H1047R), serum starved, 1 hr compound, 20 ng/ml EGF 10 min
T1 construct: endogenous in cells; host or cells: T47D
Method: PI3Kα cellular assay experimental procedure: SKBR3 or T47D cells are seeded in DMEM containing 10% FBS at 25 k cells/well into 96-well cell culture format. Cells are incubated overnight at 37° C. in a 5% CO2 incubator and the following day cell media is aspirated, adherent cells are washed 1× with room temperature PBS prior to serum-free media application. Cells are returned to 37° C. 5% CO2 incubator and incubated a further 16 hrs. Compounds are added to serum starved adherent cells with a top dose of 10,000 nM and 3× multiple dose reductions for a minimum dose of 0.5 nM diluted in DMSO. Cell/compound incubation continues for 1 hr in a 37° C., 5% CO2 incubator prior to 10 minute PIK3CA stimulation with 20 ng/ml EGF. Cells treated with 0.1% DMSO and 20 ng/mL EGF are employed as negative control, cells treated with 10 uM Alpelisib and 20 ng/mL EGF are employed as a positive control. After 10 mins, plates are removed from incubator and cells are lysed with buffer and shaking 45 minutes. 20 μL of lysate is transferred to an opti-384 plate and 2.5 μl of Phospho-AKT d2 antibody with 2.5 μl of Phospho-AKT Eu Cryptate solution in the detection buffer are added to each well. 384 well plate is left overnight at room temperature before reading HTRF on an Envision plate reader.

[2] = target: PI3K H1047R (Homo sapiens, UniProt P42336, H1047R); assay: PI3K H1047R ADP-Glo (PI/PS); format: biochemical; design: PI3K H1047R ADP-Glo (PI/PS) IC50: H1047R Selectivity: reference not given here; settings: for IC50: PI/PS substrate
PI3K H1047R, sequence (P42336 whole entry H1047R): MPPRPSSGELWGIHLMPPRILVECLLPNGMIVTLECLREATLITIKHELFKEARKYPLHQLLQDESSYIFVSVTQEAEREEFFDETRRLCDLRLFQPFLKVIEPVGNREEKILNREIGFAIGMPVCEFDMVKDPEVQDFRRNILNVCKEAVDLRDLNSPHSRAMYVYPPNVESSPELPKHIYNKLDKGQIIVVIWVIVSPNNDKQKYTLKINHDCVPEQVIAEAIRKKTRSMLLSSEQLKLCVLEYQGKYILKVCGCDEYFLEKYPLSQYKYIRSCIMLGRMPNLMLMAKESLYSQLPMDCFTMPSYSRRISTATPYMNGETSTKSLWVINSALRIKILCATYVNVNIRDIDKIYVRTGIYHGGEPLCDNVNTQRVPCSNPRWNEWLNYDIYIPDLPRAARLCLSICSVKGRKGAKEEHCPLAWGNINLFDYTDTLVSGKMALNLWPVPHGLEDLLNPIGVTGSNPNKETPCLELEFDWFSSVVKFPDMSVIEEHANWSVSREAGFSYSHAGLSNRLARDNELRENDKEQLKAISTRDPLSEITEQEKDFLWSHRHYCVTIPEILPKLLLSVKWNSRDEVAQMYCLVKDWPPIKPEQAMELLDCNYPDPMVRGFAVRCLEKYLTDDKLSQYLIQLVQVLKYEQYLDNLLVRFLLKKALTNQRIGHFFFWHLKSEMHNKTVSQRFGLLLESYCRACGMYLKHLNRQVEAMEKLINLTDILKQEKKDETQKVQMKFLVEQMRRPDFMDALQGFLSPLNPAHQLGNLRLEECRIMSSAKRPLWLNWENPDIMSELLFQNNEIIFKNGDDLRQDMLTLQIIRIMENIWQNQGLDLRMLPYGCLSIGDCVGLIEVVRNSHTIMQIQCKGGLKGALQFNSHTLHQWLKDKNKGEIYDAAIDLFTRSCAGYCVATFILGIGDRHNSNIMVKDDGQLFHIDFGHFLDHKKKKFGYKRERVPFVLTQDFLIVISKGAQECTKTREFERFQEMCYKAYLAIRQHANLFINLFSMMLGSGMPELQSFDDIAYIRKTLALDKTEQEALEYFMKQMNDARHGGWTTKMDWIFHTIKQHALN
PI3K H1047R, sequence (P27986 whole entry partner): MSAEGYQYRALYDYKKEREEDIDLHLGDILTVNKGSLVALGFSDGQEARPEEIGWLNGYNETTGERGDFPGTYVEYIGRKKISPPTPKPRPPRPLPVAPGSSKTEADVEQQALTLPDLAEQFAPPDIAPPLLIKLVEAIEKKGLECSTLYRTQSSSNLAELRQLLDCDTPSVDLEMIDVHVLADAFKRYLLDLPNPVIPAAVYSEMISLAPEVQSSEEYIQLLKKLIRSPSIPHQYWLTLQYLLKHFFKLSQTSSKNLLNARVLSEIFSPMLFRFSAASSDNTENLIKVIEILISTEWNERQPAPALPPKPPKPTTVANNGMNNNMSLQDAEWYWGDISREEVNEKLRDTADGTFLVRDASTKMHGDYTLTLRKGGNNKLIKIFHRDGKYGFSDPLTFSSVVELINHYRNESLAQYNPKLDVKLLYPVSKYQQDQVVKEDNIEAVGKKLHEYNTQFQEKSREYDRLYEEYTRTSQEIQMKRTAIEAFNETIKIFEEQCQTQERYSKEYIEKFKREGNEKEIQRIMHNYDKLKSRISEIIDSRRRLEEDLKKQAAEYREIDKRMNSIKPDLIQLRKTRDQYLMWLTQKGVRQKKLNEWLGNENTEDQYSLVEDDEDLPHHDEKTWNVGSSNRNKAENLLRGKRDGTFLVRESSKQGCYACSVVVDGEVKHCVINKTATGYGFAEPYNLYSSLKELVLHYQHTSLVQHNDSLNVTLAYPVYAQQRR

T1 sequence (P42336 whole entry H1047R): as the sequence (P42336 whole entry H1047R) above
T1 sequence (P27986 whole entry partner): as the sequence (P27986 whole entry partner) above

Compound | T47D pAKT S473 HTRF IC50 (H1047R): T47D (H1047R) selectivity over SKBR3 (WT) [1] | IC50 [1] [nM] | IC50 [2] [nM] | PI3K H1047R ADP-Glo (PI/PS) IC50: H1047R Selectivity [2]
Cc1cc([C@@H](C)Nc2ccccc2C(=O)O)c2cc(N3Cc4ccccc4C3)ncc2c1 [Compound 81] | A (A denotes >20-fold) | < 750 | < 1000 | A (A denotes >20-fold)
Cc1cc([C@H](C)Nc2ccccc2C(=O)O)c2cc(-c3ccc4c(c3)c(C)nn4C)ncc2c1 [Compound 83] | C (C denotes ≤5-fold) | ≥ 2000 | ≥ 10000 | C (C denotes ≤5-fold)
Cc1cc([C@@H](C)Nc2ccccc2C(=O)O)c2cc(-c3ccc4c(c3)c(C)nn4C)ncc2c1 [Compound 84] | A (A denotes >20-fold) | < 750 | < 1000 | A (A denotes >20-fold)

Next, values leading:

T47D pAKT S473 HTRF IC50 (H1047R): T47D (H1047R) selectivity over SKBR3 (WT) [1] | IC50 [1] [nM] | IC50 [2] [nM] | PI3K H1047R ADP-Glo (PI/PS) IC50: H1047R Selectivity [2] | Compound
C (C denotes ≤5-fold) | ≥ 2000 | ≥ 10000 | – | Cc1cc([C@H](C)Nc2ccccc2C(=O)O)c2cc(N3Cc4ccccc4C3)ncc2c1 [Compound 80]
A (A denotes >20-fold) | < 750 | < 1000 | A (A denotes >20-fold) | Cc1cc(C(C)Nc2ccccc2C(=O)O)c2cc(-c3ccnc(C4CC4)c3)n(C)c(=O)c2c1 (stereo not drawn) [Compound 82]
B (B denotes 20-fold≥value>5-fold) | ≥ 2000 | 1000 to 10000 | C (C denotes ≤5-fold) | Cc1cc([C@H](C)Nc2ccccc2C(=O)O)c2cc(-c3ccc4c(c3)c(C)nn4C)n(C)c(=O)c2c1 [Compound 85]
A (A denotes >20-fold) | < 750 | < 1000 | A (A denotes >20-fold) | Cc1cc(C(C)Nc2ccccc2C(=O)O)c2cc(-c3ccc4c(c3)c(C)nn4C)ncc2c1 (stereo not drawn) [Compound 88]
